Active and inactive are the calls of the source. The rule behind the calls is not given here.
Legend:
[1] = Cytotoxicity against PBMC; type: cell-based; conditions: human
[2] = tested on: Human immunodeficiency virus 1; assay: Antiviral activity against HIV1 LAV in PBMC; type: functional, organism-based; conditions: for EC50: Human immunodeficiency virus 1, LAV
[3] = tested on: Human immunodeficiency virus 1; assay: Antiviral activity against HIV1 BaL in PBMC; type: functional, organism-based; conditions: for EC50: Human immunodeficiency virus 1, BaL

EC50 [2] [µM] | EC50 [3] [µM] | SMILES | CC50 [1] [µM] | Activity [2] | Activity [3]
 |  | Oc1ccc(CN2CCN(Cc3ccc(O)c4ncccc34)CC2)c2cccnc12 | > 10 | inactive | inactive
 |  | Oc1ccc(CNCc2ccc(CNCc3ccc(O)c4ncccc34)cc2)c2cccnc12 | > 10 | inactive | inactive
4.1 |  | Oc1ccc(CN2CCCN(Cc3ccc(O)c4ncccc34)CCNCCCNCC2)c2cccnc12 | 8 |  | Toxic
5.1 |  | Oc1ccc(CCl)c2cccnc12 | > 10 |  | inactive
1.5 | 1.25 | Oc1ccc(CN2CCCNCCCNCCNCCC2)c2cccnc12 | > 10 |  | 
4.1 | 4.35 | Oc1ccc(CN2CCCNCCNCCCNCC2)c2cccnc12 | > 10 |  | 
0.05 |  | c1cc(CN2CCCNCCNCCCNCC2)cc(CN2CCCNCCNCCCNCC2)c1 | > 10 |  | inactive
0.7 | 3.5 | Oc1ccc(CN2CCCNCCN(Cc3ccc(CN4CCCNCCNCCCNCC4)cc3)CCCNCC2)c2cccnc12 | > 10 |  | 
0.47 |  | c1cc(CN2CCCNCCNCCCNCC2)ccc1CN1CCCNCCNCCCNCC1 [PLERIXAFOR] | > 10 |  | inactive
 |  | Oc1c(I)cc(Cl)c2cccnc12 [CLIOQUINOL] | 2 | inactive | inactive
 |  | Oc1ccc(CNCCCNCc2ccc(O)c3ncccc23)c2cccnc12 | > 10 | inactive | inactive
